These results are taken from ChEMBL document CHEMBL1201862, “PubChem BioAssay data set” (2004).

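How tested: cells in 96-well plates exposed to compound for 48 hours at five concentrations. Here, GI50 denotes the concentration required for 50% inhibition of growth.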 Calls of active or inactive are those of the source. Rule as the data show it: active = GI50 up to about 1.1 µM and inactive = higher.

Some test systems named below: NCI/ADR-RES; Hs-578T; RXF 393; DU-145; SNB-75; PC-3; T47D; K562; SN12C; TK-10; BT-549; HCC 2998; SNB-19; KM12.
Assay in all cases: inhibition of tumour cell growth, NCI panel, 48 h

For the compound `CN(C)c1ccc(/C=C/C(=O)N[C@@H]2C(=O)N3[C@@H]2SC(C)(C)[C@@H]3C(=O)O)cc1`, the GI50 in the assay with NCI/ADR-RES, with Hs-578T, in the assay with RXF 393, with DU-145, in the assay on SNB-75 and with PC-3 was > 100 µM (inactive) in each case. Moreover, the GI50 in the assay on T47D, in the assay on K562, in the assay on SN12C, in the assay with TK-10, in the assay on BT-549 and in the assay on HCC 2998 was > 100 µM (inactive) in each case. The GI50 with SNB-19 and in the assay with KM12 was > 100 µM (inactive) each time.

In the case of `COc1cccc(/C=C/C(=O)N2CC(CCl)c3c2cc(N)c2ccccc32)c1` (centres undefined), the GI50 in the assay on NCI/ADR-RES is 0.0731 µM (active); in the assay on Hs-578T, 0.00968 µM (active); in the assay with RXF 393, 0.00132 µM (active); with DU-145 it was 0.00018 µM (active); in the assay with SNB-75, 0.00237 µM (active); in the assay on PC-3 it was 0.00284 µM (active). For the same compound, the GI50 was 0.0034 µM (active) in the assay on T47D; < 0.01 µM (active) in the assay on K562; 0.00357 µM (active) in the assay with SN12C; 0.00314 µM (active) in the assay with TK-10; 0.0122 µM (active) in the assay on BT-549; 0.00242 µM (active) in the assay with HCC 2998. The GI50 was 0.0059 µM (active) in the assay on SNB-19 and 0.00434 µM (active) in the assay on KM12.

In the case of `CC(=O)/N=C1/N(/C=C2\C(=O)Oc3ccccc3C2=O)C(=O)/C(=C/c2ccc(NC(C)=O)cc2)N1C`, the GI50 is > 100 µM (inactive) in the assay on NCI/ADR-RES; 44.4 µM (inactive) with Hs-578T; > 100 µM (inactive) with RXF 393; > 100 µM (inactive) with DU-145; 84.9 µM (inactive) with SNB-75; > 100 µM (inactive) in the assay on PC-3. In addition, the GI50 in the assay with T47D, in the assay on K562, in the assay on SN12C, in the assay on HCC 2998 and in the assay with KM12 was > 100 µM (inactive) in each case.

For `O=C(Nc1cccc2ccccc12)Nn1cnnc1`, the GI50 with Hs-578T is > 100 µM (inactive); with DU-145 it was > 100 µM (inactive); in the assay with SNB-75 it was 27.6 µM (inactive); in the assay with PC-3, > 100 µM (inactive); in the assay with T47D, > 100 µM (inactive); in the assay with K562, > 100 µM (inactive). In addition, the GI50 in the assay with SN12C, in the assay with TK-10, in the assay on BT-549, in the assay with HCC 2998, in the assay with SNB-19 and in the assay with KM12 was > 100 µM (inactive) each time.

`Cc1nc2[nH]ncn2c(=O)c1CCO`: the GI50 in the assay with NCI/ADR-RES, with Hs-578T, in the assay on RXF 393, in the assay with DU-145, in the assay on SNB-75 and in the assay on PC-3 was > 10 µM (inactive) each time. In addition, the GI50 in the assay on T47D, in the assay on K562, in the assay on SN12C, with TK-10, in the assay with HCC 2998 and with SNB-19 was > 10 µM (inactive) throughout.

For `CCCCN1CSC(=S)N(Cc2ccccc2)C1`, the GI50 in the assay on NCI/ADR-RES was 54.3 µM (inactive); in the assay with Hs-578T it was > 70.3 µM (inactive); in the assay with RXF 393, 48 µM (inactive); with DU-145 it was 69.3 µM (inactive); with SNB-75, 33.7 µM (inactive); with PC-3, 63.5 µM (inactive). The GI50 with T47D is 34.8 µM (inactive); in the assay with K562 it was 31.8 µM (inactive); in the assay with SN12C it was > 71 µM (inactive); with TK-10, 28.4 µM (inactive); with BT-549, > 84.9 µM (inactive); in the assay on SNB-19 it was 66.4 µM (inactive). The GI50 in the assay with KM12 was 31.1 µM (inactive).

For `CN(NC(=O)c1cccs1)C1=NCCCN1`, the GI50 in the assay on NCI/ADR-RES, in the assay on Hs-578T, in the assay on RXF 393, in the assay on SNB-75, in the assay with PC-3 and with T47D was > 100 µM (inactive) in each case. The GI50 in the assay on K562, with TK-10, in the assay with BT-549, in the assay on HCC 2998, in the assay on SNB-19 and in the assay with KM12 was > 100 µM (inactive) throughout.

For `CCOC(=O)/C(=C/c1cn(C(C)=O)c2ccccc12)P(=O)(OC)OC`, the GI50 with NCI/ADR-RES was 29.2 µM (inactive); in the assay on Hs-578T, 31 µM (inactive); with DU-145 it was 22.2 µM (inactive); in the assay on SNB-75 it was 16 µM (inactive); in the assay with PC-3, 25.9 µM (inactive); with T47D, 13.7 µM (inactive). The GI50 was 25.6 µM (inactive) in the assay on K562, 31.6 µM (inactive) in the assay with SN12C, > 100 µM (inactive) in the assay on TK-10 and > 10 µM (inactive) in the assay with HCC 2998.

As for `CCOc1c(/N=N/c2ccccc2Cl)c(-c2ccccc2)nn1C(=S)S`, the GI50 in the assay with NCI/ADR-RES is 33.8 µM (inactive); in the assay with Hs-578T it was 22.2 µM (inactive); in the assay on RXF 393 it was 39.9 µM (inactive); in the assay on DU-145, > 100 µM (inactive); in the assay with SNB-75, > 100 µM (inactive); in the assay with PC-3, 48.2 µM (inactive). In addition, the GI50 is 22.2 µM (inactive) in the assay with T47D; 19 µM (inactive) with K562; 9.06 µM (inactive) in the assay with SN12C; 77.6 µM (inactive) in the assay with TK-10; 35.9 µM (inactive) in the assay on BT-549; > 100 µM (inactive) with SNB-19. Further, the GI50 in the assay with KM12 was 33 µM (inactive).

On to `C=CS(=O)(=O)CCN1CC1`, for which the GI50 with NCI/ADR-RES, in the assay on Hs-578T, in the assay on DU-145, with SNB-75, in the assay with PC-3 and with T47D was > 10 µM (inactive) throughout. Further, the GI50 in the assay with K562, in the assay with SN12C, with TK-10, in the assay on BT-549, with HCC 2998 and in the assay with KM12 was > 10 µM (inactive) in each case.

With `C=C1c2nc3ccccc3n2C=C(c2ccccc2)N1c1ccc([N+](=O)[O-])cc1`, the GI50 was 7.18 µM (inactive) in the assay on NCI/ADR-RES; 3.04 µM (inactive) in the assay with Hs-578T; 3.01 µM (inactive) in the assay on RXF 393; 6.92 µM (inactive) in the assay on DU-145; 3.15 µM (inactive) in the assay with SNB-75; 15.3 µM (inactive) with PC-3. For the same compound, the GI50 with T47D was 6.25 µM (inactive); in the assay with K562, 7.35 µM (inactive); in the assay with SN12C, 7.89 µM (inactive); with TK-10, 4.32 µM (inactive); with BT-549, 9.16 µM (inactive); with HCC 2998, 3.49 µM (inactive). In addition, the results for the GI50 in the assay on SNB-19 and with KM12 were 5.65 µM (inactive) and 4.14 µM (inactive), respectively.

Turning to `O=C(O)/C(=C\c1ccncc1)c1cccc2ccccc12`, the GI50 in the assay on NCI/ADR-RES, with Hs-578T, in the assay on RXF 393, in the assay on DU-145, with SNB-75 and in the assay with PC-3 was > 100 µM (inactive) in each case. Also, the GI50 in the assay on T47D is > 100 µM (inactive); in the assay on K562 it was > 100 µM (inactive); in the assay with SN12C, 44.1 µM (inactive); with TK-10, > 100 µM (inactive); in the assay with BT-549, > 100 µM (inactive); in the assay on SNB-19, > 100 µM (inactive). Also, in the assay with KM12, the GI50 is > 100 µM (inactive).

For `Cc1ccc(S(=O)(=O)N2CCCSCC2)cc1`, the GI50 in the assay on NCI/ADR-RES is > 100 µM (inactive); with Hs-578T, 72.4 µM (inactive); in the assay on RXF 393, 62.7 µM (inactive); in the assay with DU-145, > 100 µM (inactive); in the assay on SNB-75, 61.7 µM (inactive); in the assay on PC-3 it was > 100 µM (inactive). For the same compound, the GI50 with T47D, with K562, in the assay with SN12C, with TK-10, in the assay with HCC 2998 and in the assay with SNB-19 was > 100 µM (inactive) each time. Further, the GI50 in the assay with KM12 is > 100 µM (inactive).

For the compound `CCN1C(=O)c2cc(OC)c(OC)cc2C(=O)C12OC(=O)c1cc3c(cc12)OCO3` (centres undefined), the GI50 in the assay with NCI/ADR-RES was > 100 µM (inactive); with Hs-578T it was 36.8 µM (inactive); in the assay with RXF 393 it was 25.8 µM (inactive); in the assay with DU-145 it was 31.3 µM (inactive); in the assay on SNB-75 it was 23 µM (inactive); with PC-3 it was > 100 µM (inactive). In addition, the GI50 in the assay with K562 was > 100 µM (inactive); in the assay with SN12C, 61.5 µM (inactive); in the assay with TK-10 it was 75.7 µM (inactive); in the assay on BT-549, > 100 µM (inactive); in the assay on HCC 2998, 54.7 µM (inactive); with SNB-19, 39.5 µM (inactive). The GI50 in the assay on KM12 was > 100 µM (inactive).

For `CCc1c(-c2ccccc2)[nH]c2ccccc2c1=O`, the GI50 was 27.1 µM (inactive) in the assay on RXF 393; 76.9 µM (inactive) in the assay on DU-145; 46.5 µM (inactive) with T47D; 28.6 µM (inactive) in the assay on K562; > 100 µM (inactive) with SN12C; 44.8 µM (inactive) in the assay with TK-10. For the same compound, the GI50 in the assay on BT-549 is 59.4 µM (inactive); in the assay on HCC 2998, 80.9 µM (inactive); in the assay with SNB-19 it was > 100 µM (inactive); in the assay on KM12, 16.4 µM (inactive).

`Cc1cc2oc3c(ccc(=O)n3C)c(=O)c2c(C)c1Cl`: the GI50 in the assay with NCI/ADR-RES is 72.9 µM (inactive); in the assay on Hs-578T, 32 µM (inactive); with RXF 393, 31.2 µM (inactive); in the assay with DU-145 it was 56.6 µM (inactive); in the assay on SNB-75, > 100 µM (inactive); with PC-3, 37.4 µM (inactive). In addition, the GI50 in the assay with T47D is 50.1 µM (inactive); with K562, 41.9 µM (inactive); in the assay with SN12C, 48.6 µM (inactive); in the assay with TK-10, > 100 µM (inactive); in the assay on HCC 2998, > 100 µM (inactive); in the assay on SNB-19, 71.1 µM (inactive). In addition, the GI50 in the assay with KM12 was 91.4 µM (inactive).
